Experiment: subG1, G1, S, G2/M shifts, DLD-1 – cell-based, flow cytometry, propidium iodide, powder samples, counter-screen for KLF5 inhibitor project, late-stage follow-up (AID 588539)
Conditions: DLD-1 cell cycle, at 10 µM; for G1 cells: G1 phase fraction; for G2/M cells: G2/M phase fraction; for S cells: S phase fraction; for subG1 cells: stronger effect = higher value

With `CN(C(=O)COC(=O)/C=C/c1cccc([N+](=O)[O-])c1)C1CCS(=O)(=O)C1` (stereo not drawn) the G1 cells (24 h) was 39.4%, the G2/M cells (24 h) was 34.7% and the S cells (24 h) was 18.3%. The subG1 cells (24 h) was 8.03%, the G1 cells (48 h) was 27.6% and the G2/M cells (48 h) was 57.6%. The S cells (48 h) was 13% and the subG1 cells (48 h) was 1.86%.

Reference: PubChem BioAssay AID588539 (The Scripps Research Institute Molecular Screening Center, 2011)
